Measurements: ChEMBL document CHEMBL1201862, “PubChem BioAssay data set” (2004)
Activity calls are given as the source filed them.

Tests used:
[1] = molecular target: Cytochrome P450 2C19 (Homo sapiens, UniProt P33261); assay: Cytochrome panel assay with activity outcomes. Panel member name: p450-cyp2c19 Compounds with AC50 equal or less than 10 uM are considered active; format: functional; details: read-out: AC50
[2] = molecular target: T1, Cytochrome P450 1A2 (Homo sapiens, UniProt P05177)
T1 sequence (P05177 whole entry): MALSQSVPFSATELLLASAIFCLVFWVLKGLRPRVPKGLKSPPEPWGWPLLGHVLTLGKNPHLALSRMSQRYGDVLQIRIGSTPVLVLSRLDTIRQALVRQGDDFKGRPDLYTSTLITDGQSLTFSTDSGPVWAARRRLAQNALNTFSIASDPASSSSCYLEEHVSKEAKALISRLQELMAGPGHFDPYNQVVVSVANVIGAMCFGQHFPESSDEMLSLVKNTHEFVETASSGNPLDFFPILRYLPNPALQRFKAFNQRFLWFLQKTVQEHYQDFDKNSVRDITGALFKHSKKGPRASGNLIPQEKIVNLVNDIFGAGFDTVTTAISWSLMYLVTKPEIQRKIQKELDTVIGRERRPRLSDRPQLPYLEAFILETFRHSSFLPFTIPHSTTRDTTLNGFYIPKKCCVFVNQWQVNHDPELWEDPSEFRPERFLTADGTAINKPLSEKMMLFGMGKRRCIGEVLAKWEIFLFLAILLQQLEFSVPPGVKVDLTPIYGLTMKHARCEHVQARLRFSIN

[3] = molecular target: Cytochrome P450 3A4 (Homo sapiens, UniProt P08684);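 note: CYP3A4 tested as one member of a cytochrome P450 panel screen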
Sequence of Cytochrome P450 3A4 (P08684 whole entry): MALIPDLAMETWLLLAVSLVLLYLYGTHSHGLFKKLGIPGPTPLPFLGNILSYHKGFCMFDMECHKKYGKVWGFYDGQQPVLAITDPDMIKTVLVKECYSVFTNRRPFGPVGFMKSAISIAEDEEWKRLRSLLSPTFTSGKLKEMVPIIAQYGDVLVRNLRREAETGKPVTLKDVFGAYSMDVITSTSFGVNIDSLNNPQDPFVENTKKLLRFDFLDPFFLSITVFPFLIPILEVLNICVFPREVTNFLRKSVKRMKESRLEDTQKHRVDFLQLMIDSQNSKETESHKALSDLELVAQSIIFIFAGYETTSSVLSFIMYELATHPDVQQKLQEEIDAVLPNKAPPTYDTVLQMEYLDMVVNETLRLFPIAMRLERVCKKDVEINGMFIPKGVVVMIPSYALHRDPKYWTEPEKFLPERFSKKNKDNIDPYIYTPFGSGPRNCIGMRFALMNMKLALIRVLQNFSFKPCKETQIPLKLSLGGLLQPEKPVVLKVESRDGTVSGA

[4] = Luminescence Cell-Based Dose Confirmation HTS to Identify Activators of 5'UTR Stem-Loop Driven Alpha-Synuclein mRNA Translation in H4 Neuroglioblastoma Cells. [Related pubchem assays: 1829 (Project Summary), 1814 (Primary HTS)]; format: functional
[5] = Luminescence Cell-Based Dose Response HTS to Identify Activators of Luciferase Translation or Activity in H4 […] Cells. [Related pubchem assays: 1829 (Project Summary), 1814 (Primary HTS)]; format: functional
[6] = molecular target: Cytochrome P450 2C9 (Homo sapiens, UniProt P11712)
Sequence of Cytochrome P450 2C9 (P11712 whole entry): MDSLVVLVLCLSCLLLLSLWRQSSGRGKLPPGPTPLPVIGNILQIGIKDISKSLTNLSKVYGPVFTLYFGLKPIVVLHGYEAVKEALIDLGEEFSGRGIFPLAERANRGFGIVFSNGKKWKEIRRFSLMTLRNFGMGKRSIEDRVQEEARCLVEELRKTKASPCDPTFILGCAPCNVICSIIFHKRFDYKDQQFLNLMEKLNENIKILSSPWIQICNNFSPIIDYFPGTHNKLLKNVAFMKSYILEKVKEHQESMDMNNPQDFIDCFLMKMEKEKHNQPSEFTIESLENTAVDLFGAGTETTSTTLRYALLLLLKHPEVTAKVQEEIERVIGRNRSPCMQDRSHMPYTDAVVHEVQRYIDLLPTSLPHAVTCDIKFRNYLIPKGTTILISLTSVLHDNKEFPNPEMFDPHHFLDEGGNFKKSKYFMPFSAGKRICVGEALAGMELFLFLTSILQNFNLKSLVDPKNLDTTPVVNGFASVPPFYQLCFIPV

[7] = system: H4; assay: Luminescence Cell-Based Dose Response HTS to Identify Activators of 5'UTR Stem-Loop Driven Prion Protein mRNA Translation in H4 Neuroglioblastoma Cells. [Related pubchem assays: 1829 (Project Summary), 1814 (Primary HTS)]; format: functional; details: Homo sapiens
[8] = molecular target: T2, Heat shock factor protein 1 (Mus musculus, UniProt P38532); assay: inhibition of MG132-induced HSE-luciferase signal, confirmation, cell-based, NIH3T3, luminescence, dose retest (AID 2382); format: functional;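 note: NIH3T3 fibroblasts with HSF1-driven luciferase reporter stressed by proteasome inhibitor MG132; luminescence from HSF1-driven luciferase expression after 8 hours of MG132 stress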
T2 sequence (P38532 whole entry): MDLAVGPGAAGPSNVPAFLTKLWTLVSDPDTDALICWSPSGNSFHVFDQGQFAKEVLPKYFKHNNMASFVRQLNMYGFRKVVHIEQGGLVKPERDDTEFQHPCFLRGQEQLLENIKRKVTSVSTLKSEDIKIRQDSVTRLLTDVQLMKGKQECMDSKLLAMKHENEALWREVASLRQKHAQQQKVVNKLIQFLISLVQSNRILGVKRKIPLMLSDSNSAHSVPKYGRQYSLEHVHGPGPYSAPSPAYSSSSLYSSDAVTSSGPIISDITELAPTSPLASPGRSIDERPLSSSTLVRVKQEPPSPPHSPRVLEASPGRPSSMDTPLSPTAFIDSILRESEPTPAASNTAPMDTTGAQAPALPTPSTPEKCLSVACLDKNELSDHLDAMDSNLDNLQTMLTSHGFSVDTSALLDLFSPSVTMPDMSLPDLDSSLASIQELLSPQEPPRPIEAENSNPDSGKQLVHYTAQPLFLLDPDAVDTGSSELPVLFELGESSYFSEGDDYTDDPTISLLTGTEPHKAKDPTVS

[9] = molecular target: Polyadenylate-binding protein 1 (Homo sapiens, UniProt P11940); assay: PABP1 MLLE–PAM2 binding inhibitor potency, dose response, biochemical, fluorescence polarization, FITC-PAM2 peptide (AID 602259); format: functional; details: read-out: IC50_Mean
Sequence of Polyadenylate-binding protein 1 (P11940 whole entry): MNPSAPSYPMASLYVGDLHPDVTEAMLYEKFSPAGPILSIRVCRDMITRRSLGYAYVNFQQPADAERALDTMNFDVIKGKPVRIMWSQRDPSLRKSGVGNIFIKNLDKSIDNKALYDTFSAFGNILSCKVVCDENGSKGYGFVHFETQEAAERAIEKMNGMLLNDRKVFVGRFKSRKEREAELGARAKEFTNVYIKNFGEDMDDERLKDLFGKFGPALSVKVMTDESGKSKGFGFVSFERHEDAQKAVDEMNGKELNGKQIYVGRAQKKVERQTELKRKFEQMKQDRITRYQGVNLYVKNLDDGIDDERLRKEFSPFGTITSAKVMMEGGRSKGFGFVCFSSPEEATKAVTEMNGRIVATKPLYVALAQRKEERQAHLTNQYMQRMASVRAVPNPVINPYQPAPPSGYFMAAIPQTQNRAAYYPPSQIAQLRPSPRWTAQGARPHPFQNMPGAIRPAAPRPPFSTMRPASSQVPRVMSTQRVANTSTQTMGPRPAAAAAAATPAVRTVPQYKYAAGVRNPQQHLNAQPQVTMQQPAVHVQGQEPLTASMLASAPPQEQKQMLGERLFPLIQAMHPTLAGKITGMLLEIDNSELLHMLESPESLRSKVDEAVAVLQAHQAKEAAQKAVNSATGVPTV

[10] = system: Streptococcus; assay: Group A Streptococcus viability loss, dose response, counter-screen for streptokinase expression inhibitor project, luminescence, BacTiterGlo (AID 1915); format: functional, organism-based;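 note: potency for reduction of bacterial viability or growth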
[11] = system: Streptococcus sp. 'group A'; assay: growth inhibition of control SK(-) GAS strain, dose response, counter-screen for streptokinase expression inhibitor project, luminescence, kanamycin, BacTiterGlo, confirmation (AID 1900); format: functional, organism-based
[12] = molecular target: T3, Streptokinase A (Streptococcus pyogenes serotype M1, UniProt P10520); assay: S. pyogenes streptokinase expression inhibitors, potency, dose response, plasminogen activation absorbance, OD405 (AID 1914); format: functional, Streptococcus pyogenes M1 GAS;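 note: secreted streptokinase activity via plasminogen activation per viability signal from cell pellet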
T3 sequence (P10520 whole entry): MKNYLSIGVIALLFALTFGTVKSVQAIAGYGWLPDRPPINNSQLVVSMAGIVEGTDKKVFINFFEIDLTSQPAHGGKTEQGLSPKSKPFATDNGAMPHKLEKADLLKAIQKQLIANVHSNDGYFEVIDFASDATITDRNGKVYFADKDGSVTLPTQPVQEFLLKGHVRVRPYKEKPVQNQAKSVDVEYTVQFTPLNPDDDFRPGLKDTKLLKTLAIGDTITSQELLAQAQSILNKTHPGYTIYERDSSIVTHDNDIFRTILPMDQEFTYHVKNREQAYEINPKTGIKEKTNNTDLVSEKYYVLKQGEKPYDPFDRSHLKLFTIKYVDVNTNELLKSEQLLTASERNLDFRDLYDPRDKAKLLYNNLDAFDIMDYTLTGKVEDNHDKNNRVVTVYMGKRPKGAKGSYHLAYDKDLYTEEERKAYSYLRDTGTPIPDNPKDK

Sequence of Cytochrome P450 2C19 (P33261 whole entry): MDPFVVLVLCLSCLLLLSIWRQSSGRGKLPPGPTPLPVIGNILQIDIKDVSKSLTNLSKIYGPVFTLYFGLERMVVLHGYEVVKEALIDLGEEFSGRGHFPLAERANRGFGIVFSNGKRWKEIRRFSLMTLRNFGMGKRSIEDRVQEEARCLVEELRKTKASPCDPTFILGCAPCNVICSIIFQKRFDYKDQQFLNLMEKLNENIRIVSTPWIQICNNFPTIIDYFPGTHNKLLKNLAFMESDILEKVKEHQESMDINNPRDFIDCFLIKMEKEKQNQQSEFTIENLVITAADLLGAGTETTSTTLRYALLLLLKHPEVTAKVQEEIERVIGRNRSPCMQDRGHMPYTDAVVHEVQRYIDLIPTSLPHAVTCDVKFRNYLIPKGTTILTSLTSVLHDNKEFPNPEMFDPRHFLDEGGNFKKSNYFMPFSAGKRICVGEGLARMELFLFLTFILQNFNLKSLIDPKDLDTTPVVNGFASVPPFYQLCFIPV

SMILES: C[C@](N)(COP(=O)(O)O)C(=O)O
- AC50 [1]: 25.1 µM (inconclusive)
- AC50 [2]: 31.6 µM (inconclusive)

SMILES: CCc1c(C(=O)OC)ncc2[nH]c3cc(OC)c(OC)cc3c12
- AC50 [3]: 15.8 µM (inconclusive)

SMILES: Cc1ccc(N2CCN(C(=O)c3cn(CC4CCCCC4)nn3)C(C)C2)cc1 (centres undefined)
- EC50 [4]: 2.49 µM (active)
- EC50 [5]: 0.418 µM (active)

SMILES: Cc1cnc(CNc2cc(-c3cccnc3)ncn2)cn1
- AC50 [2]: 15.8 µM (inconclusive)
- AC50 [3]: 15.8 µM (inconclusive)

SMILES: COc1ccc(NC(=O)N2CCCC3(CCN(C(=O)Oc4ccccc4)CC3)C2)cc1
- AC50 [6]: 1.58 µM (inconclusive)

SMILES: COc1cc(O)c2c(O)c3c(c4c2c1[C@@]1(C4)C(C)=CCCC1(C)C)[C@H](O)[C@@]1(O)CC(O)=C(C(N)=O)C(=O)[C@]1(O)C3=O
- AC50 [2]: 3.16 µM (inconclusive)
- AC50 [6]: 3.16 µM (inconclusive)

SMILES: O=C1NCCN1Cc1cccc(Cl)c1
- AC50 [1]: 2.24 µM (inconclusive)
- AC50 [6]: 2.24 µM (inconclusive)

SMILES: O=C(c1cnsn1)N1CCC(CO)(Cc2cccc(F)c2)CC1
- EC50 [4]: 14.8 µM (active)
- EC50 [7]: 75.8 µM (active)
- EC50 [5]: 15.2 µM (active)

SMILES: COc1ccc(COC(=O)N/N=C2/C[C@@H](O)[C@@H](O)[C@@H]3[C@H]4C(=O)N(c5ccc(F)cc5F)C(=O)[C@@H]4CC[C@@H]23)cc1
- AC50 [3]: 3.16 µM (inconclusive)

SMILES: Cc1noc(C)c1-c1cc(Nc2ccc(F)cc2)ncn1
- AC50 [1]: 39.8 µM (inconclusive)
- AC50 [3]: 20 µM (inconclusive)

SMILES: Clc1ccc(COn2ccnc2)cc1Cl
- EC50 [4]: > 120 µM (not active)
- EC50 [7]: > 120 µM (not active)
- EC50 [5]: > 120 µM (not active)

SMILES: O=c1c(-c2cccc(F)c2)nc2cncnc2n1Cc1ccccc1Cl
- AC50 [3]: 15.8 µM (inconclusive)

SMILES: CCOC(=O)c1ccc(N[S+]([O-])C23CC4CC(CC(C4)C2)C3)cc1 (centres undefined)
- EC50 [4]: > 120 µM (not active)
- EC50 [7]: > 120 µM (not active)
- EC50 [5]: > 120 µM (not active)

SMILES: C=CCn1c(CCCNC(=O)C(C)(C)C)nc2ccccc21
- EC50 [8]: > 195 µM (not active)

SMILES: COc1cc(SC)ccc1C(=O)OCC(=O)NC1CCCC1
- EC50 [8]: > 195 µM (not active)

SMILES: Cc1ccc(NC(S)=Nc2ccc(Br)cc2)cc1
- AC50 [3]: 14.1 µM (inconclusive)

SMILES: COc1ccc(-n2c(=O)c(C)nc3cncnc32)cc1
- AC50 [6]: 39.8 µM (inconclusive)

SMILES: CCOc1c2ccc(C(=O)NCCc3cccs3)cc2nn1CC
- AC50 [1]: 4.47 µM (inconclusive)
- EC50 [7]: > 120 µM (not active)
- EC50 [5]: 1.51 µM (active)
- AC50 [6]: 28.2 µM (inconclusive)

SMILES: CN(C)C(=O)c1ccc(-c2nc(Nc3ccncc3)c3ccccc3n2)cc1
- AC50 [1]: 39.8 µM (inconclusive)

SMILES: CCn1ccc(C(=O)NC2=C(C#N)CCC2)n1
- AC50 [6]: 14.1 µM (inconclusive)

SMILES: COc1ccc(NC(=O)Nc2ccc([N+](=O)[O-])cc2)cn1
- IC50 [9]: 42.1 µM (inactive)

SMILES: CCOC(=O)C1(S(=O)(=O)c2ccccc2)CCN(Cc2ccccc2)CC1
- AC50 [6]: 11.2 µM (inconclusive)

SMILES: Cc1ccc(C2=NCCn3c2c2ccc(C(F)(F)F)cc2[n+]3[O-])cc1
- EC50 [8]: > 195 µM (not active)

SMILES: CCNc1ncc2nc(C)c(=O)n(Cc3ccc(F)cc3)c2n1
- AC50 [1]: 6.31 µM (inconclusive)
- AC50 [3]: 7.94 µM (inconclusive)

SMILES: COC(=O)c1ccc2ccn(CC(=O)NC3CCCCC3)c2c1
- AC50 [3]: 4.47 µM (inconclusive)

SMILES: C=CCNc1nnnc2c1sc1nc(N3CCOCC3)c3c(c12)CCCC3
- EC50 [8]: > 195 µM (not active)

SMILES: CC(C)Sc1nc2sccc2c(=O)n1-c1ccccc1
- EC50 [8]: > 195 µM (not active)

SMILES: CC(=O)NC1=NN(C(C)=O)C(c2ccccn2)S1 (centres undefined)
- EC50 [8]: > 195 µM (not active)

SMILES: COc1ccc(-n2c(=O)c(-c3cccs3)nc3cnc(N4CCN(C)CC4)nc32)cc1
- AC50 [2]: 2.51 µM (inconclusive)
- AC50 [3]: 25.1 µM (inconclusive)

SMILES: CN1CCc2ccccc2[C@@H]1Cc1ccccc1NC(=O)c1sc2ccccc2c1Cl
- AC50 [2]: 5.01 µM (inconclusive)
- AC50 [6]: 3.16 µM (inconclusive)

SMILES: COC(=O)[C@@H]1C[C@H]1[C@@H](NC(=O)c1ccccc1)c1ccccc1
- AC50 [6]: 39.8 µM (inconclusive)

SMILES: CCOC(=O)C1=C(O)C(Nc2nccs2)(C(F)(F)F)N=C1C (centres undefined)
- AC50 [6]: 35.5 µM (inconclusive)

SMILES: O=c1c(-c2ccc(F)cc2)nc2cnc(Nc3ccccc3)nc2n1C[C@H]1CCCO1
- AC50 [2]: 2 µM (inconclusive)
- AC50 [3]: 12.6 µM (inconclusive)

SMILES: O=C(c1ccccn1)c1cc2ccccc2n1S(=O)(=O)c1ccccc1
- EC50 [4]: 20.5 µM (active)
- EC50 [5]: 55.9 µM (active)

SMILES: NNC(=O)CNC(=O)CNS(=O)(=O)c1ccccc1
- EC50 [8]: > 195 µM (not active)

SMILES: O=C(Cc1ccccc1F)Nc1ccc(S(=O)(=O)N2CCCCC2)cc1
- EC50 [8]: > 195 µM (not active)

SMILES: O=S(=O)(c1ccccc1)c1c[nH]c(O)n1
- EC50 [8]: > 195 µM (not active)

SMILES: Cc1ccc(C2N(c3ccccc3)C(=S)N3CCCN23)cc1 (centres undefined)
- EC50 [8]: > 195 µM (not active)

SMILES: CCN1CCN(c2cc3c(nn2)Oc2ccccc2N3C)CC1
- EC50 [4]: 11.4 µM (active)
- EC50 [7]: 0.573 µM (active)
- EC50 [5]: 44.6 µM (active)

SMILES: COC(=O)c1cc(/C=C/c2ccccc2)[nH]n1
- EC50 [4]: 25.4 µM (active)
- EC50 [7]: 18.1 µM (active)
- EC50 [5]: 6.84 µM (active)

SMILES: O=C1C(Cl)=C(NCC2CCCO2)C(=O)N1CCc1ccccc1 (centres undefined)
- EC50 [4]: 12.9 µM (active)
- EC50 [7]: 13.1 µM (active)
- EC50 [5]: 15.4 µM (active)

SMILES: COc1ccc(-n2c(S)nnc2COc2cccc(C)c2)cc1
- EC50 [8]: > 195 µM (not active)

SMILES: Cn1c(S)nnc1CCCOc1ccc(Cl)cc1Cl
- EC50 [4]: > 120 µM (not active)
- EC50 [7]: 7.51 µM (active)
- EC50 [5]: 22.5 µM (active)

SMILES: COc1ccc(-n2c(=O)c(-c3cc(F)cc(F)c3)nc3cncnc32)cc1
- AC50 [1]: 10 µM (inconclusive)

SMILES: CC(=O)c1ccc(-n2nnnc2SCC(=O)Nc2cccc(NC(=O)c3ccco3)c2)cc1
- AC50 [6]: 7.08 µM (inconclusive)

SMILES: Cc1cc(NC(=O)c2ccc3nc(C)sc3c2)no1
- EC50 [8]: 0.167 µM (active)

SMILES: O=C(CCNC(=O)c1ccccc1)OCN1C(=O)c2ccccc2C1=O
- AC50 [1]: 39.8 µM (inconclusive)
- AC50 [3]: 15.8 µM (inconclusive)

SMILES: COc1ccc(/C=N/Nc2nc(C)cc(O)n2)cc1OC
- EC50 [8]: 29.8 µM (active)

SMILES: C/C(=N\NC(=O)CSc1[nH]c(C)nc1[N+](=O)[O-])c1ccc(F)cc1
- EC50 [4]: 15 µM (active)
- EC50 [10]: > 150 µM (not active)
- EC50 [7]: 97.5 µM (active)
- EC50 [11]: > 150 µM (not active)
- EC50 [5]: 14.3 µM (active)
- EC50 [12]: > 150 µM (not active)

SMILES: N#C/C(=C\c1ccc(O)c(O)c1)C(=O)OCCc1cccs1
- AC50 [3]: 20 µM (inconclusive)
